Results on four compounds are retold here after patent publication US20240050447A1 (Propella Therapeutics, Inc., priority 2020, published 2024).

Where “and” joins values, the source holds several entries; their conditions need not be identical. Identical values can stand only once. Like-named read-outs stand apart in the source and are kept apart here.

Series [1] can be described thus: in vivo. The following applies: monkey, plasma, intramuscular, 90 mg/kg.
Excerpt: (§1) Weighting was included, dependent on the pattern of residuals (residual Y versus predicted concentration or time) and precision of the estimated parameters. The appropriate model was selected based on: (i) visual inspection of the model fit to the data (ii) the lowest value of Akaike Information Criterion (AIC) and (iii) precision of the estimated parameters (CV). Systemic clearance (CL) and apparent volume of distribution (Vss) were derived from the exponential functions.
(§2) Deconvolution: The rate and extent of input from an intramuscular administration was simulated by deconvolution using WinNonlin Phoenix Version 8.2. Deconvolution is based on linear systems analysis and is defined by the convolution integral: G(t)=R(t)*H(t). G(t) is the measured plasma concentration profile after intramuscular dosing, H(t) is represented by the exponential function described in Section 3.2 and R(t), the rate of input from the IM depot over time, is derived by deconvolution of the above expression. The slope of the input rate versus time generates the input rate constant (Koi). Integration of input rate versus time generates the cumulative input function and an estimate of absolute bioavailability.
For series [2] the following is noted: dogs (N=3); Group 2: IM 77 mg/kg abiraterone isocaproate, 158 mg/ml in 90% corn oil/10% benzyl alcohol; plasma analyte = label; mean.
The nature of series [3]: in vivo. The note with it: rat, plasma, intramuscular, 90 mg/kg.
Excerpt: as §1, §2
A short description of series [4]: Plasma PK in rats after IM injection of abiraterone or abiraterone acetate formulations (Example 5A). The following applies: male, rat, group mean.
Description: (§3) Several formulations were considered in the initial rat study.
(§4) The above formulations were administered to either rats or dogs as an IV injection or as IM injections to the hind leg(s) of each animal.
A short description of series [5]: in vivo. The following applies: dog, plasma, intramuscular.
Excerpt: as §1, §2
A short description of series [6]: in vivo. The following applies: Beagle, dog; for half-life: iv.
Description: Nominal dose values and sampling times were used for calculations. For the purpose of PK calculations, any concentration reported as “BLQ” was set equal to zero.
Cmax and the corresponding Tmax values were determined by direct assessment of the concentration versus time data. All AUC calculations were performed using the linear trapezoidal rule.
As data permitted, the terminal elimination rate constant (lambda z, λz) was calculated.
To optimize the reliability of the identified terminal phase (λz), where possible, the data points used to define the λz were manually selected.
The AUCINF value was calculated as: AUClast+(Clast/λz). CL/F was calculated as: Dose per dosing interval/(AUCINF) and Vz/F was calculated as: Dose per dosing interval/(AUCINF*λz). Terminal t1/2 was calculated as: ln(2)/λz.
Mean plasma concentration versus time data are presented with standard deviation (SD) and percent coefficient of variation (CV %) and reported to three significant figures. PK parameter values are presented with mean, SD, and CV %. Individual Tmax values were reported to two significant figures, while all other values and descriptive statistics are reported to three significant figures.
Series [7] in a line: PK modelling and deconvolution of abiraterone plasma profiles, monkeys (Example 7D).
Excerpt: as §1, §2
Series [8] can be described thus: Allometric scaling and prediction of plasma profile of abiraterone in man (Example 7D).
Excerpt: (§5) CL and Vss in man were predicted from CL and Vss in animals by an allometric approach. Vss=a·W^x where a is the intercept, W is bodyweight and x is the allometric exponent; then, log Vss=x·log W+log a (derived from a log-log plot of body weight versus Vss in the 3 species). […] The rate and extent of input was derived by deconvolution.
For series [9] the following is noted: human.
Excerpt: as §5
The nature of series [10]: PK modelling and deconvolution of abiraterone plasma profiles, dogs (Example 7D).
Excerpt: as §1, §2
Series [11] can be described thus: in vivo. The following applies: male, beagle, dog, plasma; for AUC(0-inf): dogs.
Series [12] is described as follows: PK modelling and deconvolution of abiraterone plasma profiles, rats (Example 7D).
Excerpt: as §1, §2
The conditions of series [13]: dog, in vivo.
For series [14] the following is noted: male, rat, in vivo, im.
Description: as §3, §4
Series [15] is described as follows: in vivo. The note with it: male, rat, plasma.
Series [16] in a line: PK of single IM abiraterone decanoate (and oral abiraterone acetate) in chemically castrated monkeys (Example 10). The note with it: abiraterone in plasma.
Series [17] can be described thus: in vivo. The note with it: male, cynomolgus monkey, plasma.
Where [18] appears, read: Group 3: IM abiraterone suspension in castor oil (62.5 mg/ml).
Setting [19] is: Group 4: IM abiraterone suspension, sodium phosphate buffer, 0.1% Tween (62.5 mg/ml).
The mark [20] stands for this setting: single IM 10 mg/kg, Geometric Mean (N=3).
The mark [21] stands for this setting: single IM 10 mg/kg, Median (N=3).
Setting [22] is: single IM 10 mg/kg, individual animals.
Where [23] appears, read: single IM 30 mg/kg, Geometric Mean (N=3).
Where [24] appears, read: single IM 30 mg/kg, Median (N=3).
Setting [25] is: single IM 30 mg/kg, individual animals.
[26] abbreviates: single IM 100 mg/kg, Mean (N=3).
The mark [27] stands for this setting: single IM 100 mg/kg, Median (N=3).
The mark [28] stands for this setting: single IM 100 mg/kg, individual animals.

Usually half-life stands for how long it takes for the measured level to halve. Low values mean fast loss, high ones slow loss. What is called Cmax is the peak of the concentration-time curve. Usually Tmax stands for the time from dosing to the highest level. A word on the bioavailability: it is the share of a dose that reaches the circulation, judged against a reference dose that is usually intravenous. A lower bioavailability goes with little systemic uptake. As usually defined, the AUC(0-inf) is total exposure, with the tail of the curve extrapolated. High values mean more exposure, low ones less exposure. As a reminder, the Vd is a proportionality between amount in the body and measured concentration, not a real space. Read a high Vd as extensive tissue distribution. By clearance is commonly meant a measure of how efficiently the substance is removed, as volume per time. Low readings indicate inefficient removal, high ones efficient removal. Usually CL/F stands for clearance divided by bioavailability, as obtained after extravascular dosing. By Vd/F is commonly meant the apparent distribution volume after extravascular dosing.

With `C[C@]12CC[C@H](O)CC1=CC[C@@H]1[C@@H]2CC[C@]2(C)C(c3cccnc3)=CC[C@@H]12` [Abiraterone, (3β)-17-(pyridin-3-yl)androsta-5,16-dien-3-ol], the half-life was 325 h in “in vivo [1]”; 325 h in the series “in vivo [3]”; 319 h in the series “in vivo [5]”; 2.1 h in the series “in vivo [6]” (1 mg/kg, mean t1/2); 223 h in “in vivo [11]” (im, 77 mg/kg, t1/2, dogs (N=3), Group 2: IM 77 mg/kg abiraterone isocaproate, 158 mg/ml in 90% corn oil/10% benzyl alcohol, plasma analyte = label, mean). In series [2], this compound returned an AUCINF of 275 ng·days/mL. In addition, in series [2], the AUClast amounted to 266 ng·days/mL. Besides, in series [2], the t1/2 is 223 h. Also, the Cmax in series [4] (setting [18]) was found to be 13.3 ng/mL; in [4] (setting [19]), 1.43 ng/mL. Further, the Tmax was found to be 2.6 h in [4] (setting [18]) and 1.67 h in series [4] (setting [19]). In addition, the bioavailability is 72% in “in vivo [6]” (im, absolute bioavailability for abiraterone); 87% in the series “in vivo [11]” (im, 77 mg/kg); 42% in “in vivo [11]” (im, 87 mg/kg). Further, the AUC(0-inf) in the series “in vivo [6]” (im, mean abiraterone AUCINF after IM, corrected for dose and time units) is 104 ng·h/mL; in “in vivo [11]” (im, 60 mg/kg, mean abiraterone AUCINF after IM, corrected for dose and time units, 60 mg/kg IM administration (abiraterone decanoate)), 70.4 ng·h/mL; in “in vivo [11]” (im, 60 mg/kg, mean abiraterone AUCINF after IM, corrected for dose and time units, 60 mg/kg IM administration of abiraterone isocaproate), 114 ng·h/mL; in “in vivo [11]” (iv, 0.78 mg/kg, mean abiraterone AUCINF after IV, corrected for dose, IV abiraterone isocaproate (0.78 mg/kg as abiraterone)) it was 131 ng·h/mL. Further, the F is recorded as 14% in series [7] (Monkeys, IM bioavailability of abiraterone from abiraterone decanoate, deconvolution); 56% in [10] (Dogs, IM bioavailability of abiraterone from abiraterone decanoate, deconvolution); 19% in series [12] (Rats, IM bioavailability of abiraterone from abiraterone decanoate, deconvolution). The Vd in series [7] (monkey, plasma, iv, […]) is 5.73 L/kg; in series [10] (dog, plasma, iv, […]) it was 14.2 L/kg; in series [12] (rat, plasma, iv, […]), 22.3 L/kg. The clearance was 43 mL/min/kg in series [7] (monkey, plasma, iv, […]); 108 mL/min/kg in series [10] (dog, plasma, iv, […]); 190 mL/min/kg in [12] (rat, plasma, iv, […]). Besides, the “Vss, predicted in man” value in series [8] (allometric scaling from rats, dogs and monkeys) is on record as 437 L. The “K01, predicted in man” value in series [8] (from deconvolution of animal IM/IV data) was 0.00213 h⁻¹. Moreover, in series [8] (value of dogs used), the “F, predicted in man” value was 56%. The “t1/2 (absorption half-life), predicted in man” value in [9] was 325 h.

As for `CC(=O)O[C@H]1CC[C@@]2(C)C(=CC[C@@H]3[C@@H]2CC[C@]2(C)C(c4cccnc4)=CC[C@@H]32)C1` [Abiraterone acetate, (3β)-17-(3-Pyridyl)androsta-5, acetate], in series [13], the injection site tolerability entry is “irritating to the dogs at the injection site”. In [13] (iv, 10 mg/kg), the AUCINF stood at 5990 ng·h/mL, the AUCINF/Dose is reported as 599, the AUClast was determined as 5920 ng·h/mL and the AUClast/Dose turned out to be 592. For the same compound, the “time out to which blood levels were measurable” value in [13] (male) worked out at 504 h. Besides, the Tmax in series [14] turned out to be 8.00 h. Besides, in [14] (35 mg/kg), the AUClast was 934 ng·h/mL, the Cmax was 21.6 ng/mL and the time of peak concentration (Tmax) amounted to 39.2 h.

In series [2], `CC(C)CCC(=O)O[C@H]1CC[C@@]2(C)C(=CC[C@@H]3[C@@H]2CC[C@]2(C)C(c4cccnc4)=CC[C@@H]32)C1` [Abiraterone Isocaproate, Abiraterone isocaproate] showed a Cmax of 106 ng/mL.

Take `CCCCCCCCCC(=O)O[C@H]1CC[C@@]2(C)C(=CC[C@@H]3[C@@H]2CC[C@]2(C)C(c4cccnc4)=CC[C@@H]32)C1` [Abiraterone Decanoate, Abiraterone decanoate]: the Tmax in the series “in vivo [6]” (im, mean decanoate Tmax, range between the two IM formulations) lay within 2.64 to 6.24 h. For the same compound, the half-life is 0.86 h in “in vivo [6]” ([…]); 792 h in the series “in vivo [15]” (im, 90 mg/kg); 3.2 h in “in vivo [15]” (iv, […]); 161 h in “in vivo [11]” (im, 87 mg/kg); 240 h in the series “in vivo [17]” (im, 90 mg/kg); 2.27 h in “in vivo [17]” (iv, […]). Besides, the CL/F in “in vivo [11]” (im, 87 mg/kg) came out at 207 mL/min/kg. The same compound returned a Vd/F in “in vivo [11]” (im, 87 mg/kg) of 2850 L/kg. Besides, the AUC0-t was 196 ng·days/mL in series [16] (setting [20]); 225 ng·days/mL in series [16] (single IM 10 mg/kg, Max (N=3)); 198 ng·days/mL in [16] (single IM 10 mg/kg, Mean (N=3)); 212 ng·days/mL in [16] (setting [21]); 157 ng·days/mL in series [16] (single IM 10 mg/kg, Min (N=3)); 225 ng·days/mL and 157 ng·days/mL and 212 ng·days/mL in series [16] (setting [22]). Besides, the AUC0-t in [16] (setting [23]) was 330 ng·days/mL; in series [16] (single IM 30 mg/kg, Max (N=3)) it was 449 ng·days/mL; in series [16] (single IM 30 mg/kg, Mean (N=3)), 338 ng·days/mL; in series [16] (setting [24]) it was 285 ng·days/mL; in series [16] (single IM 30 mg/kg, Min (N=3)) it was 281 ng·days/mL; in [16] (setting [25]), 281 ng·days/mL and 285 ng·days/mL and 449 ng·days/mL. The AUC0-t in [16] (single IM 100 mg/kg, Max (N=3)) was 1760 ng·days/mL; in [16] (setting [26]), 1410 ng·days/mL; in series [16] (setting [27]), 1270 ng·days/mL; in [16] (single IM 100 mg/kg, Min (N=3)), 1200 ng·days/mL; in series [16] (setting [28]), 1270 ng·days/mL and 1200 ng·days/mL and 1760 ng·days/mL. Also, the “AUC0-∞” value is 209 ng·days/mL in [16] (setting [20]); 236 ng·days/mL in series [16] (single IM 10 mg/kg, Max (N=3)); 212 ng·days/mL in [16] (single IM 10 mg/kg, Mean (N=3)); 235 ng·days/mL in [16] (setting [21]); 166 ng·days/mL in [16] (single IM 10 mg/kg, Min (N=3)); 235 ng·days/mL and 166 ng·days/mL and 236 ng·days/mL in series [16] (setting [22]). Further, the “AUC0-∞” value was 347 ng·days/mL in [16] (setting [23]); 492 ng·days/mL in [16] (single IM 30 mg/kg, Max (N=3)); 358 ng·days/mL in series [16] (single IM 30 mg/kg, Mean (N=3)); 293 ng·days/mL in series [16] (setting [24]); 290 ng·days/mL in series [16] (single IM 30 mg/kg, Min (N=3)); 293 ng·days/mL and 290 ng·days/mL and 492 ng·days/mL in series [16] (setting [25]). Further, the “AUC0-∞” value in series [16] (single IM 100 mg/kg, Max (N=3)) is 1770 ng·days/mL; in [16] (setting [26]), 1430 ng·days/mL; in series [16] (setting [27]) it was 1330 ng·days/mL; in [16] (single IM 100 mg/kg, Min (N=3)) it was 1200 ng·days/mL; in series [16] (setting [28]) it was 1330 ng·days/mL and 1200 ng·days/mL and 1770 ng·days/mL.
